Holding throughout (type): functional, organism-based
The subject of test [1] is Plasmodium falciparum. Nature of the test: Antimalarial activity against Chloroquine resistant Plasmodium falciparum W2 assessed as parasitic growth inhibition.
For test [2], the system named is Plasmodium falciparum. Nature of the test: Antimalarial activity against Chloroquine sensitive Plasmodium falciparum D6 assessed as parasitic growth inhibition.
The test system of test [3] is Plasmodium falciparum. Nature of the test: Antimalarial activity against Plasmodium falciparum K1 assessed as parasitic growth inhibition.
The test system of test [4] is Plasmodium falciparum. Kind of test: Antimalarial activity against Plasmodium falciparum 3D7 assessed as parasitic growth inhibition.
Test [5] has as its system Plasmodium falciparum. Nature of the test: Antimalarial activity against Plasmodium falciparum Dd2 assessed as parasitic growth inhibition.

Values after ≈ are worked out from the molar mass of the structure shown.

The source of these data is ChEMBL document CHEMBL5329153, “Is structural hybridization invoking new dimensions for antimalarial drug discovery research?” (RSC Med Chem, 2023).

In general, IC50 refers to the concentration that inhibits the measured activity by half. For orientation: EC50 means the midpoint of the concentration-response curve.

With `Cc1cc(NCCCCNc2ccnc3cc(Cl)ccc23)nc(Nc2ccc(C(=O)N3CCSCC3)cc2)n1`, the figures for the IC50 with Plasmodium falciparum [1] and in the test on Plasmodium falciparum [2] were 33 nM and 32 nM, respectively.

On to `Cc1cc(Nc2ccc(C(=O)N3CCCCC3)cc2)nc(NCCCNc2ccnc3cc(Cl)ccc23)n1`, for which the IC50 amounted to 33 nM with Plasmodium falciparum [1] and 32 nM in the test on Plasmodium falciparum [2].

`Cc1cc(NCCCCNc2ccnc3cc(Cl)ccc23)nc(Nc2ccc(C(=O)N3CCCCC3)cc2)n1`: the values for the IC50 with Plasmodium falciparum [1] and with Plasmodium falciparum [2] were 33 nM and 32 nM, respectively.

`Cc1cc(NCCCCCCNc2ccnc3cc(Cl)ccc23)nc(Nc2ccc(C(=O)N3CCOCC3)cc2)n1`: the IC50 in the test with Plasmodium falciparum [1] stood at 33 nM; in the test with Plasmodium falciparum [2], 32 nM.

As for `O=C(c1ccc(Nc2nccc(NCCCNc3ccnc4cc(Cl)ccc34)n2)cc1)N1CCSCC1`, the figures for the IC50 in the test with Plasmodium falciparum [1] and in the test with Plasmodium falciparum [2] were 33 nM and 32 nM, respectively.

With `Cc1cc(NCCNc2ccnc3cc(Cl)ccc23)nc(Nc2ccc(C(=O)N3CCCCC3)cc2)n1`, the IC50 amounted to 33 nM in the test with Plasmodium falciparum [1] and 32 nM in the test with Plasmodium falciparum [2].

With `C[C@H]1[C@H](OC(=O)CCC(=O)OCc2cn(-c3ccnc4cc(Cl)ccc34)nn2)O[C@@H]2O[C@]3(C)CC[C@H]4[C@H](C)CC[C@@H]1[C@@]24OO3` (racemic), the EC50 is 1.8 nM with Plasmodium falciparum [3], 5.3 nM with Plasmodium falciparum [4] and 4.2 nM in the test with Plasmodium falciparum [5].

With `C[C@H]1[C@@H](OCCCc2cn(-c3cccc4cc(Cl)ccc34)nn2)O[C@@H]2O[C@]3(C)CC[C@H]4[C@H](C)CC[C@@H]1[C@@]24OO3`, the EC50 in the test with Plasmodium falciparum [3] amounted to 3.8 nM; in the test with Plasmodium falciparum [4] it was 9.4 nM; in the test with Plasmodium falciparum [5], 5.1 nM.

Consider `Cc1cc(NCCCNc2ccnc3cc(Cl)ccc23)nc(Nc2ccc(C(=O)N3CCSCC3)cc2)n1`, for which the concentration for half-maximal inhibition (IC50) in the test on Plasmodium falciparum [1] worked out at 33 nM; with Plasmodium falciparum [2], 32 nM.

Consider `Cc1cc(Nc2ccc(C(=O)N3CCCC3)cc2)nc(NCCCNc2ccnc3cc(Cl)ccc23)n1`, for which the half-maximal inhibitory concentration (IC50) with Plasmodium falciparum [1] turned out to be 33 nM; with Plasmodium falciparum [2], 32 nM.

As to `Cc1cc(NCCCNc2ccnc3cc(Cl)ccc23)nc(Nc2ccc(C(=O)N3CCCC3)cc2)n1`, the values for the IC50 in the test with Plasmodium falciparum [1] and with Plasmodium falciparum [2] were 33 nM and 32 nM, respectively.

Turning to `Cc1cc(NCCNc2ccnc3cc(Cl)ccc23)nc(Nc2ccc(C(=O)N3CCOCC3)cc2)n1`, the IC50 stood at 33 nM with Plasmodium falciparum [1] and 32 nM with Plasmodium falciparum [2].

For `Cc1cc(NCCNc2ccnc3cc(Cl)ccc23)nc(Nc2ccc(C(=O)N3CCSCC3)cc2)n1`, the figures for the IC50 with Plasmodium falciparum [1] and in the test with Plasmodium falciparum [2] were 33 nM and 32 nM, respectively.

`O=C(c1ccc(Nc2nccc(NCCCNc3ccnc4cc(Cl)ccc34)n2)cc1)N1CCCCC1`: the IC50 amounted to 33 nM with Plasmodium falciparum [1] and 32 nM with Plasmodium falciparum [2].

For the compound `Cc1cc(NCCCCCCNc2ccnc3cc(Cl)ccc23)nc(Nc2ccc(C(=O)N3CCCCC3)cc2)n1`, the IC50 with Plasmodium falciparum [1] was 33 nM; in the test on Plasmodium falciparum [2], 32 nM.

Consider `O=C(c1ccc(Nc2nccc(NCCCCNc3ccnc4cc(Cl)ccc34)n2)cc1)N1CCCCC1`, for which the IC50 was determined as 33 nM with Plasmodium falciparum [1] and 32 nM in the test with Plasmodium falciparum [2].

For `CN(C)c1nc(N)nc(NCCNc2ccnc3cc(Cl)ccc23)n1`, in the test on Plasmodium falciparum [4], the IC50 turned out to be 46.3 µg/mL (≈ 129 µM).

Consider `O=C(c1ccc(Nc2nccc(NCCCNc3ccnc4cc(Cl)ccc34)n2)cc1)N1CCCC1`, for which the 50% inhibitory concentration (IC50) is 33 nM with Plasmodium falciparum [1] and 32 nM in the test with Plasmodium falciparum [2].

As to `Cc1cc(Nc2ccc(C(=O)N3CCOCC3)cc2)nc(NCCCNc2ccnc3cc(Cl)ccc23)n1`, the values for the IC50 with Plasmodium falciparum [1] and in the test on Plasmodium falciparum [2] were 33 nM and 32 nM, respectively.

With `Cc1cc(Nc2ccc(C(=O)N3CCOCC3)cc2)nc(NCCCCNc2ccnc3cc(Cl)ccc23)n1`, the 50% inhibitory concentration (IC50) turned out to be 33 nM in the test on Plasmodium falciparum [1] and 32 nM with Plasmodium falciparum [2].

Take `CCCCc1nc(C)c2ccc(-c3cn(CCOC(=O)CCC(=O)O[C@@H]4O[C@@H]5O[C@]6(C)CC[C@H]7[C@H](C)CC[C@@H]([C@H]4C)[C@@]57OO6)nn3)cc2c1CCCC`: the EC50 turned out to be 4.2 nM in the test with Plasmodium falciparum [3], 9.2 nM in the test with Plasmodium falciparum [4] and 10 nM in the test with Plasmodium falciparum [5].

In the case of `Cc1cc(Nc2ccc(C(=O)N3CCSCC3)cc2)nc(NCCCNc2ccnc3cc(Cl)ccc23)n1`, the IC50 with Plasmodium falciparum [1] stood at 33 nM; in the test on Plasmodium falciparum [2], 32 nM.

Regarding `Cc1cc(NCCCCCCNc2ccnc3cc(Cl)ccc23)nc(Nc2ccc(C(=O)N3CCCC3)cc2)n1`, the IC50 in the test with Plasmodium falciparum [1] worked out at 33 nM; in the test on Plasmodium falciparum [2] it was 32 nM.

As for `C[C@H]1[C@H](OC(=O)CCC(=O)OCCNc2ccnc3cc(Cl)ccc23)O[C@@H]2O[C@]3(C)CC[C@H]4[C@H](C)CC[C@@H]1[C@@]24OO3`, the figures for the EC50 in the test on Plasmodium falciparum [3], in the test on Plasmodium falciparum [4] and with Plasmodium falciparum [5] were 1.7 nM, 4.5 nM and 2.3 nM, respectively.

Turning to `C#CCCCN(CCNc1ccnc2cc(Cl)ccc12)C(=O)CCC(=O)O[C@@H]1O[C@@H]2O[C@]3(C)CC[C@H]4[C@H](C)CC[C@@H]([C@H]1C)[C@@]24OO3`, the figures for the EC50 with Plasmodium falciparum [3], with Plasmodium falciparum [4] and in the test on Plasmodium falciparum [5] were 1.3 nM, 3.5 nM and 1.6 nM, respectively.

Consider `Cc1cc(NCCCNc2ccnc3cc(Cl)ccc23)nc(Nc2ccc(C(=O)N3CCOCC3)cc2)n1`, for which the IC50 in the test with Plasmodium falciparum [1] worked out at 33 nM; in the test on Plasmodium falciparum [2], 32 nM.

As to `C[C@H]1[C@H](OC(=O)CCC(=O)OCCCCc2cn(-c3ccnc4cc(Cl)ccc34)nn2)O[C@@H]2O[C@]3(C)CC[C@H]4[C@H](C)CC[C@@H]1[C@@]24OO3`, the results for the EC50 in the test with Plasmodium falciparum [3], in the test on Plasmodium falciparum [4] and in the test with Plasmodium falciparum [5] were 2.5 nM, 6.2 nM and 4.4 nM, respectively.

Regarding `O=C(c1ccc(Nc2nccc(NCCCNc3ccnc4cc(Cl)ccc34)n2)cc1)N1CCOCC1`, the results for the IC50 in the test on Plasmodium falciparum [1] and with Plasmodium falciparum [2] were 33 nM and 32 nM, respectively.

Take `Cc1cc(NCCCCCCNc2ccnc3cc(Cl)ccc23)nc(Nc2ccc(C(=O)N3CCSCC3)cc2)n1`: the IC50 in the test on Plasmodium falciparum [1] came out at 33 nM; in the test with Plasmodium falciparum [2], 32 nM.

On to `C[C@H]1[C@@H](OCc2cn(-c3cccc4cc(Cl)ccc34)nn2)O[C@@H]2O[C@]3(C)CC[C@H]4[C@H](C)CC[C@@H]1[C@@]24OO3`, for which the values for the EC50 with Plasmodium falciparum [3], with Plasmodium falciparum [4] and in the test on Plasmodium falciparum [5] were 4.3 nM, 9 nM and 5.9 nM, respectively.

Turning to `Cc1cc(NCCCNc2ccnc3cc(Cl)ccc23)nc(Nc2ccc(C(=O)N3CCCCC3)cc2)n1`, the IC50 turned out to be 33 nM in the test with Plasmodium falciparum [1] and 32 nM in the test with Plasmodium falciparum [2].

Regarding `O=C(c1ccc(Nc2nccc(NCCCCNc3ccnc4cc(Cl)ccc34)n2)cc1)N1CCOCC1`, the IC50 with Plasmodium falciparum [1] amounted to 33 nM; in the test on Plasmodium falciparum [2], 32 nM.

On to `Cc1cc(NCCCCNc2ccnc3cc(Cl)ccc23)nc(Nc2ccc(C(=O)N3CCCC3)cc2)n1`, for which the IC50 with Plasmodium falciparum [1] is 33 nM; in the test with Plasmodium falciparum [2], 32 nM.

On to `Cc1cc(Nc2ccc(C(=O)N3CCSCC3)cc2)nc(NCCCCNc2ccnc3cc(Cl)ccc23)n1`, for which the IC50 in the test on Plasmodium falciparum [1] stood at 33 nM; in the test with Plasmodium falciparum [2] it was 32 nM.

Take `O=C(c1ccc(Nc2nccc(NCCCCNc3ccnc4cc(Cl)ccc34)n2)cc1)N1CCCC1`: the IC50 in the test with Plasmodium falciparum [1] turned out to be 33 nM; in the test with Plasmodium falciparum [2], 32 nM.

Regarding `Cc1cc(Nc2ccc(C(=O)N3CCCCC3)cc2)nc(NCCCCNc2ccnc3cc(Cl)ccc23)n1`, the IC50 is 33 nM in the test with Plasmodium falciparum [1] and 32 nM with Plasmodium falciparum [2].

Consider `O=C(c1ccc(Nc2nccc(NCCCCNc3ccnc4cc(Cl)ccc34)n2)cc1)N1CCSCC1`, for which the IC50 in the test with Plasmodium falciparum [1] amounted to 33 nM; in the test on Plasmodium falciparum [2] it was 32 nM.

Consider `Cc1cc(NCCNc2ccnc3cc(Cl)ccc23)nc(Nc2ccc(C(=O)N3CCCC3)cc2)n1`, for which the IC50 in the test on Plasmodium falciparum [1] was 33 nM; in the test on Plasmodium falciparum [2], 32 nM.

As to `Cc1cc(Nc2ccc(C(=O)N3CCCC3)cc2)nc(NCCCCNc2ccnc3cc(Cl)ccc23)n1`, the IC50 in the test with Plasmodium falciparum [1] was found to be 33 nM; in the test on Plasmodium falciparum [2], 32 nM.
